According to patent US9512117B2 (priority 2010, dated 2016):
“And” between values parts separate entries of the source, which are not always exact repeats. Equal values may be shown once.

How the values were obtained:
[1] = system: Phytophthora infestans; assay type: in vivo; conditions: young tomato plants, protective spray, 100 ppm active ingredient, evaluation 7 days after inoculation; 0% = control, 100% = no infection
[2] = logP by HPLC on reversed-phase columns (C 18), EEC directive 79/831 Annex V.A8; assay type: physicochemical; conditions: LC-MS; for Log P [a]: acidic range, pH 2.7, 0.1% aqueous formic acid and acetonitrile; for Log P [b]: neutral range, pH 7.8, 0.001 molar aqueous ammonium hydrogencarbonate and acetonitrile
Method: The logP values were measured according to EEC directive 79/831 Annex V.A8 by HPLC (High Performance Liquid Chromatography) on reversed-phase columns (C 18), using the methods below:
^[a] The LC-MS determination in the acidic range is effected at pH 2.7 with 0.1% aqueous formic acid and acetonitrile (contains 0.1% formic acid) as eluents; linear gradient from 10% acetonitrile to 95% acetonitrile.
^[b] The LC-MS determination in the neutral range is effected at pH 7.8 using 0.001 molar aqueous ammonium hydrogencarbonate solution and acetonitrile as eluents; linear gradient from 10% acetonitrile to 95% acetonitrile.
The calibration is effected with unbranched alkan-2-ones (having 3 to 16 carbon atoms) with known logP values (logP values determined on the basis of the retention times by linear interpolation between two successive alkanones).

[3] = system: Plasmopara viticola; assay: Plasmopara test (grapevine) / protective; assay type: in vivo; conditions: young grapevine plants, protective spray, 10 ppm active ingredient, evaluation 6 days after inoculation; 0% = control, 100% = no infection
Method: Plasmopara Test (Grapevine)/Protective
• Solvent: 24.5 parts by weight of acetone • 24.5 parts by weight of dimethylacetamide • Emulsifier: 1 part by weight of alkylaryl polyglycol ether
To produce a suitable active ingredient formulation, 1 part by weight of active ingredient is mixed with the stated amounts of solvent and emulsifier, and the concentrate is diluted with water to the desired concentration.
To test for protective efficacy, young plants are sprayed with the active ingredient formulation at the stated application rate. After the spray coating has dried on, the plants are inoculated with an aqueous spore suspension of Plasmopara viticola and then remain in an incubation cabin at approx. 20° C. and 100% relative air humidity for 1 day. Subsequently, the plants are placed in a greenhouse at approx. 21° C. and approx. 90% air humidity for 4 days. The plants are then moistened and placed in an incubation cabin for 1 day.
Evaluation follows 6 days after the inoculation. 0% means an efficacy which corresponds to that of the control, whereas an efficacy of 100% means that no infection is observed.
In this test, the following inventive compounds show, at an active ingredient concentration of 10 ppm, an efficacy of 70% or more: […]

Cc1cc(C(F)(F)F)nn1CC(=O)N1CCC(c2nc(C3=NOC(c4ccccc4C[S+](C)[O-])C3)cs2)CC1 (mixture of isomers) [Ex. 35]
Eff. % [1]: 100% | Log P [a] [2]: 2.34[a]

CC[S+]([O-])Cc1ccccc1C1CC(c2csc(C3CCN(C(=O)Cn4nc(C(F)(F)F)cc4C)CC3)n2)=NO1 (mixture of isomers) [Ex. 36]
Eff. % [1]: 100% | Log P [a] [2]: 2.53[a]

Cc1cc(C(F)(F)F)nn1CC(=O)N1CCC(c2nc(C3=NOC(c4ccccc4CS(C)(=O)=O)C3)cs2)CC1 (racemic) [Ex. 34]
Eff. % [3]: 84% | Eff. % [1]: 100% | Log P [a] [2]: 2.6[a]

C#CCOc1cccc(F)c1C1(C)CC(c2csc(C3CCN(C(=O)Cn4nc(C)cc4C(F)F)CC3)n2)=NO1 (racemic) [Ex. 37]
Eff. % [3]: 96% | Eff. % [1]: 94% | Log P [a] [2]: 3.11[a]; | Log P [b] [2]: 3.12[b];

C#CCOc1cccc(Cl)c1C1CC(c2csc(C3CCN(C(=O)Nc4cc(C)ccc4C)CC3)n2)=NO1 (racemic) [Ex. 38]
Eff. % [3]: 100% | Eff. % [1]: 94% | Log P [a] [2]: 3.68[a]; | Log P [b] [2]: 3.57[b]

C=CCOc1cccc(Cl)c1C1CC(c2csc(C3CCN(C(=O)Nc4cc(Cl)ccc4C)CC3)n2)=NO1 (racemic) [Ex. 39]
Eff. % [3]: 100% | Eff. % [1]: 94% | Log P [a] [2]: 4.21[a]; | Log P [b] [2]: 4.11[b]

Cc1cc(C(F)(F)F)nn1CC(=O)N1CCC(c2nc(C3=NOC(c4cccc(OC(=O)C5CC5)c4)C3)cs2)CC1 (racemic) [Ex. 40]
Eff. % [3]: 85% | Eff. % [1]: 100% | Log P [a] [2]: 3.53[a]; | Log P [b] [2]: 3.47[b]

C=CCOc1cccc(C2CC(c3csc(C4CCN(C(=O)Cn5nc(C(F)(F)F)cc5C)CC4)n3)=NO2)c1 (racemic) [Ex. 41]
Eff. % [3]: 78% | Eff. % [1]: 98% and 97% | Log P [a] [2]: 3.62[a]; | Log P [b] [2]: 3.68[b];

C=CCOc1cccc(Cl)c1C1CC(c2csc(C3CCN(C(=O)Nc4cc(C)ccc4C)CC3)n2)=NO1 (racemic) [Ex. 42]
Eff. % [3]: 96% | Eff. % [1]: 94% | Log P [a] [2]: 3.98[a]; | Log P [b] [2]: 3.91[b]

Cc1cc(C(F)(F)F)nn1CC(=O)N1CCC(c2nc(C3=NOC(c4ccccc4COCC(F)(F)F)C3)cs2)CC1 (racemic) [Ex. 43]
Eff. % [3]: 83% | Eff. % [1]: 97% | Log P [a] [2]: 3.77[a]

COCCOCc1ccccc1C1CC(c2csc(C3CCN(C(=O)Cn4nc(C(F)(F)F)cc4C)CC3)n2)=NO1 (racemic) [Ex. 44]
Eff. % [1]: 94% | Log P [a] [2]: 3.28[a]

C#CCOc1ccccc1C1CC(c2csc(C3CCN(C(=O)Nc4cc(C)ccc4C)CC3)n2)=NO1 (racemic) [Ex. 45]
Eff. % [3]: 96% | Eff. % [1]: 100% | Log P [a] [2]: 3.43[a]; | Log P [b] [2]: 3.41[b]

C=CCOc1ccccc1C1CC(c2csc(C3CCN(C(=O)Nc4cc(C)ccc4C)CC3)n2)=NO1 (racemic) [Ex. 46]
Eff. % [3]: 98% | Eff. % [1]: 100% | Log P [a] [2]: 3.91[a]; | Log P [b] [2]: 3.81[b]

Cc1cc(C(F)(F)F)nn1CC(=O)N1CCC(c2nc(C3=NOC(c4ccc(OC(=O)C5CC5)cc4)C3)cs2)CC1 (racemic) [Ex. 47]
Eff. % [3]: 86% | Eff. % [1]: 100% | Log P [a] [2]: 3.49[a]; | Log P [b] [2]: 3.4[b]

Cc1cc(C(F)(F)F)nn1CC(=O)N1CCC(c2nc(C3=NOC(c4c(Cl)cccc4OC(=O)C4CC4)C3)cs2)CC1 (racemic) [Ex. 48]
Eff. % [3]: 95% | Eff. % [1]: 70% | Log P [a] [2]: 3.73[a]; | Log P [b] [2]: 3.64[b]

COCCOc1cccc(F)c1C1CC(c2csc(C3CCN(C(=O)Cn4nc(C(F)(F)F)cc4C)CC3)n2)=NO1 (racemic) [Ex. 49]
Eff. % [3]: 100% | Eff. % [1]: 90% | Log P [a] [2]: 3.28[a]; | Log P [b] [2]: 3.17[b]

Cc1cc(C(F)(F)F)nn1CC(=O)N1CCC(c2nc(C3=NOC(c4ccccc4NS(C)(=O)=O)C3)cs2)CC1 (stereo not shown) [Ex. 5, N-(2-{3-[2-(1-{[5-Methyl-3-(trifluoromethyl)-1H-pyrazol-1-yl]acetyl}piperidin-4-yl)-1,3-thiazol-4-yl]-4,5-dihydro-1,2-oxazol-5-yl}phenyl)methanesulphonamide]
Eff. % [3]: 84% | Eff. % [1]: 95%

C#CCOc1ccc(F)c(C2CC(c3csc(C4CCN(C(=O)Cn5nc(C(F)(F)F)cc5C)CC4)n3)=NO2)c1F (stereo not shown) [Ex. 8]
Eff. % [3]: 100% | Eff. % [1]: 100%

C#CCOc1c(F)cccc1C1CC(c2csc(C3CCN(C(=O)Cn4nc(C(F)(F)F)cc4C)CC3)n2)=NO1 (stereo not shown) [Ex. 9]
Eff. % [3]: 100% | Eff. % [1]: 94%

C#CCOc1cccc(C2CC(c3csc(C4CCN(C(=O)Cn5nc(C(F)(F)F)cc5C)CC4)n3)=NO2)c1 (stereo not shown) [Ex. 10]
Log P [a] [2]: 3.49[a]; | Log P [b] [2]: 3.3[b]

O=C(Oc1ccccc1C1CC(c2csc(C3CCN(C(=O)Cn4nc(C(F)(F)F)cc4C(F)(F)F)CC3)n2)=NO1)C1CC1 (stereo not shown) [Ex. 14]
Log P [a] [2]: 4.04[a]

CC#CCOc1cc(OC)ccc1C1CC(c2csc(C3CCN(C(=O)Cn4nc(C(F)F)cc4C)CC3)n2)=NO1 (stereo not shown) [Ex. 15]
Log P [a] [2]: 3.28[a]

O=C(Cn1nc(C(F)(F)F)cc1C(F)(F)F)N1CCC(c2nc(C3=NOC(c4ccccc4OCC4CC4)C3)cs2)CC1 (stereo not shown) [Ex. 16]
Eff. % [3]: 96% | Log P [a] [2]: 4.59[a]

Cc1cc(C(F)(F)F)nn1CC(=O)N1CCC(c2nc(C3=NOC(c4ccccc4OCC4CC4)C3)cs2)CC1 (stereo not shown) [Ex. 17]
Eff. % [3]: 92% | Log P [a] [2]: 4.03[a]

C=CCOc1ccc(F)c(C2CC(c3csc(C4CCN(C(=O)Cn5nc(C(F)(F)F)cc5C)CC4)n3)=NO2)c1F (stereo not shown) [Ex. 19]
Eff. % [3]: 98% | Eff. % [1]: 98%

C#CCOc1cc(Cl)ccc1C1CC(c2csc(C3CCN(C(=O)Cn4nc(C(F)F)cc4C)CC3)n2)=NO1 (stereo not shown) [Ex. 20]
Log P [a] [2]: 3.37[a]; | Log P [b] [2]: 3.36[b]

C#CCOc1cc(Cl)cc(Cl)c1C1CC(c2csc(C3CCN(C(=O)Cn4nc(C(F)F)cc4C)CC3)n2)=NO1 (stereo not shown) [Ex. 21]
Log P [a] [2]: 3.66[a]; | Log P [b] [2]: 3.57[b]

C=CCOc1cc(C)ccc1C1CC(c2csc(C3CCN(C(=O)Cn4nc(C(F)F)cc4C)CC3)n2)=NO1 (stereo not shown) [Ex. 22]
Log P [a] [2]: 3.62[a]; | Log P [b] [2]: 3.66[b];

C#CCOc1cc(C)ccc1C1CC(c2csc(C3CCN(C(=O)Cn4nc(C(F)F)cc4C)CC3)n2)=NO1 (stereo not shown) [Ex. 23]
Log P [a] [2]: 3.23[a]; | Log P [b] [2]: 3.23[b];

C=CCOc1cc(Cl)cc(Cl)c1C1CC(c2csc(C3CCN(C(=O)Cn4nc(C(F)F)cc4C)CC3)n2)=NO1 (stereo not shown) [Ex. 24]
Log P [a] [2]: 3.95[a]; | Log P [b] [2]: 3.97[b];

C#CCOc1cc(C)ccc1C1CC(c2csc(C3CCN(C(=O)Cn4nc(C(F)(F)F)cc4C)CC3)n2)=NO1 (stereo not shown) [Ex. 26]
Eff. % [1]: 100% | Log P [a] [2]: 3.67[a]; | Log P [b] [2]: 3.61[b]

COc1ccc(C2CC(c3csc(C4CCN(C(=O)Cn5nc(C(F)F)cc5C)CC4)n3)=NO2)c(OCC2CC2)c1 (stereo not shown) [Ex. 27]
Log P [a] [2]: 3.5[a]

Cc1cc(C(F)F)nn1CC(=O)N1CCC(c2nc(C3=NOC(c4c(F)cccc4OCC4CC4)C3)cs2)CC1 (stereo not shown) [Ex. 28]
Log P [a] [2]: 3.44[a]

C#CCOc1cccc(F)c1C1CC(c2csc(C3CCN(C(=O)Cn4nc(C(F)F)cc4C)CC3)n2)=NO1 (stereo not shown) [Ex. 31]
Log P [a] [2]: 2.92[a]
